The source of these data is US20140378408A1, “NUCLEOSIDE 5'-PHOSPHOROTHIOATE ANALOGUES AND USES THEREOF” (BAR-ILAN UNIVERSITY, an Israeli University, priority 2012, published 2014).

A short description of data set [1]: ESR OH radical assay, Fe^2+/H2O2 Fenton system. Particulars: N/A = minimal radical production exceeds 10%.
Data set [2] concerns PC12 cells. As to the kind of experiment: Inhibition of Fe(II)-induced ROS formation in PC12 cells (DCFH-DA). It is filed as cell-based. The note with it: read-out: IC50 inhibition of ROS formation. The procedure:
In this study, nucleoside 5′-phosphorothioate analogues were explored as inhibitors of Fe(II)-induced oxidative stress in PC12 cells used as a neuronal model. Reduction of ROS production in PC12 cells by each one of the tested analogues was measured by DCFH-DA, a radical sensitive indicator. After DCFH-DA was removed, the tested analogue was added to the cells at a final concentration of 0.2-200 μM. Oxidation was initiated by the addition of FeSO4 (0.16 μM) to the wells. The plates were incubated for 1 h at 37° C., during which the absorbance was read by a Tecan fluorometer at 485/530 nm.

A short description of data set [3]: Chemical stability (acid, base, air-oxidation) monitored by 31P-NMR. It is filed as physicochemical. Particulars: for stability: pD=1 as printed, two weeks. The procedure: In order to study and evaluate the chemical stability of adenosine-5′-tetrathio bisphosphonate and di-adenosine 5′,5″-tetrathiobisphosphonate to basic and acidic condition, as well as to air-oxidation, kinetic measurements were performed by monitoring the changes in the percentage of these amalogues, using ^31P-NMR (FIGS. 16-18).
The evaluation of the stability of adenosine-5′-tetrathio bisphosphonate by ^31P-NMR was first conducted at pD=1.5 for four days. In the course of the experiment, new signals emerged in ^31P-NMR spectra at 104.4, 92.3, 89.2, 86.1, 67.8 ppm and the percentage of starting material was obtained from the ratio of integration between the starting material and the total peaks in the spectrum.
Next, we studied the stability of adenosine-5′-tetrathio bisphosphonate under basic conditions, pD=11. […] After two weeks, the ^31P-NMR spectrum was identical to the starting material, without any indication of decomposition. We associate this with the repulsion between the negative charges of the tetrathio-bisphosphonate moiety in adenosine-5′-tetrathio bisphosphonate and OH^− ions. In addition, intramolecular nucleophilic attack and formation of disulfide bond are less likely to occur under these conditions.
Furthermore, we tested the stability of adenosine-5′-tetrathio bisphosphonate under air-oxidizing conditions, by performing ^31P-NMR measurements in an open rotating NMR tube. […] The MS and ^31P-NMR analysis of the freeze-dried sample of adenosine-5′-tetrathio bisphosphonate after 3 days indicated the formation of an intramolecularly oxidized product.

Data set [4] concerns PC12 cells. As to the kind of experiment: Toxicity at PC12 cells (MTT assay). It is filed as cell-based. The procedure:
The results shown are the mean±S.D of three independent experiments in triplicate.
In this study, the toxicity of APCPP-γ-S, at 1-1000 μM, at PC12 cells was tested by MTT assay. […] At 1000 μM, 75% of the cells were still viable.

The target in data set [5] is T1, human P2Y1-R (Homo sapiens, UniProt P47900).
T1 construct: expressed in transfected cells; host or cells: 1321N1 astrocytoma cells
T1 sequence (P47900 whole entry): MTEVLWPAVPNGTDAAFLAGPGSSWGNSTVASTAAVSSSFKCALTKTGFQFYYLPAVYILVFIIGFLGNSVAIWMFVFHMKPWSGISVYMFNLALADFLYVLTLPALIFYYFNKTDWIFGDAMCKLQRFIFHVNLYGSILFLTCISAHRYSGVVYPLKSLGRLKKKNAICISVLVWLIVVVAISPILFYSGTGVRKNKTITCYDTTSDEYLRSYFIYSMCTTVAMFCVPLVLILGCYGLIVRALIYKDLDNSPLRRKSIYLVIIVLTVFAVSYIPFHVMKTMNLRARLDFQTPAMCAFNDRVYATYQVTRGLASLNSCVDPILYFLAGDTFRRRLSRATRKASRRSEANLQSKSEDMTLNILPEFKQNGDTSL
As to the kind of experiment: [Ca^2+]i response of 1321N1 astrocytoma cells expressing P2Y1-R GFP. It is filed as cell-based. Particulars: for EC50: agonist, read-out: EC50 at the P2Y1 receptor. On the procedure:
GFP constructs of human P2Y2-R, P2Y1-R and P2Y11-R were stably expressed in 1321N1 astrocytoma cells, which lack endogenous expression of P2X- and P2Y-receptors. The respective cDNA of the receptor gene was cloned into a pEGFPN1 vector and after transfection, using FuGENE 6 Transfection Reagent (Roche Molecular Biochemicals, Mannheim, Germany), cells were selected with 0.5 mg/ml G418 (geneticine; Merck Chemicals, Darmstadt, Germany) and grown in DMEM supplemented with 10% serum (FCS), 100 U/ml penicillin and 100 U/ml streptomycin at 37° C. and 5% CO2. The expression and cell membrane localization of the respective P2Y receptors was confirmed through the analysis of the GFP fluorescence. The functionality of the expressed GFP-labeled receptor in cells was verified by recording a change of [Ca^2+]i after stimulation with the appropriate receptor agonist.
1321N1 astrocytoma cells transfected with the respective plasmid for P2Y-R-GFP expression plated on coverslips (22 mm diameter) and grown to approximately 80% density, were incubated with 2 μM fura 2/AM and 0.02% pluronic acid in Na-HBS buffer (Hepes buffered saline: 145 mM NaCl, 5.4 mM KCl, 1.8 mM CaCl2, 1 mM MgCl2, 25 mM glucose, 20 mM Hepes/Tris pH 7.4) for 30 min at 37° C. The cells were superfused (1 ml/min, 37° C.) with different concentrations of nucleotide in Na-HBS buffer. The nucleotide-induced change of [Ca^2+] was monitored by detecting the fluorescence intensities with excitations at 340 nm and 380 nm. Only GFP-labeled cells were analyzed. Microsoft Excel (Microsoft Corp., Redmond, Wash., USA) and SigmaPlot (SPSS Inc., Chicago, Ill., USA) were used to derive the concentration-response curves and EC50 values from the average response amplitudes obtained in at least three independent experiments (Ecke et al., 2006; Ecke et al., 2008). Only cells with a clear GFP-signal and with the typical calcium response kinetics upon agonist pulse application were included in the data analysis. The nucleotide induced change of [Ca^2+]i was monitored by detecting the respective emission intensity of fura 2/AM at 510 nm with 340 nm and 380 nm excitations (Ubl et al., 1998). The average maximal amplitude of the responses and the respective standard errors were calculated from ratio of the fura 2/AM. The GFP-tagged P2Y receptors are suitable for pharmacological and physiological studies, as previously reported (Tulapurkar et al., 2004; Tulapurkar et al., 2006; Zylberg et al., 2007).

Data set [6] deals with T2, TNAP (Homo sapiens, UniProt P05186).
T2 sequence (P05186 18-501): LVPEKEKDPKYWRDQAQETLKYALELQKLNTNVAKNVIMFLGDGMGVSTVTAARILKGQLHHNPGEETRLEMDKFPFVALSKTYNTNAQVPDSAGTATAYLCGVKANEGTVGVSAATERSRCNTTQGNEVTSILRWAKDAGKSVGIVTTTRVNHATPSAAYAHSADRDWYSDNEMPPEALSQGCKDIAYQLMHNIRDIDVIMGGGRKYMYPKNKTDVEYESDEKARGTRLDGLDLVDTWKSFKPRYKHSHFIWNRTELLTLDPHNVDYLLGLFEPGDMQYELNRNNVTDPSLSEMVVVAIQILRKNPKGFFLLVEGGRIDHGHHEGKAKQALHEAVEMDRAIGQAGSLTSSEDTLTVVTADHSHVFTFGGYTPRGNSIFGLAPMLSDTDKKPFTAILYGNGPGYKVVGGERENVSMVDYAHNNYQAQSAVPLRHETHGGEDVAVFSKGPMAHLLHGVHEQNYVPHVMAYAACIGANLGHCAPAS
Nature of the data set: Hydrolysis by TNAP. It is filed as in vitro ADME. The note with it: 1 h. The text has this: The metabolic stability of APPCCl2P-α-S (isomer A) and APCPP-γ-S was further proven by their resistance to enzymatic hydrolysis by TNAP.

Where two headings read alike, the source gives them in different places.

Broadly, the IC90 is the point of the concentration-response curve where the effect stands at 90%. A high value points to a need for much substance. Broadly, the IC50 is the concentration that gives 50% inhibition. By EC50 is commonly meant the concentration at which the effect is half-maximal.

Turning to `Nc1ncnc2c1ncn2[C@@H]1O[C@H](COP(=O)(O)OP(O)(O)=S)[C@@H](O)[C@H]1O` [ADP-β-S, adenosine 5′-[β-thio]diphosphate, reference compound], the IC90 in data set [1] was found to be 210 ± 1 µM. Besides, the IC50 in data set [2] (PC12 cells, FeSO4 0.16 μM, 1 h, DCFH-DA) worked out at 26 µM.
Consider adenosine-5′-tetrathiobisphosphonate, for which the stability result in data set [3] is recorded as “completely stable even after two weeks”. In addition, the “stability under basic conditions” value in data set [3] (pD=11, two weeks) is reported as “highly stable”.
For `Nc1ncnc2c1ncn2[C@@H]1O[C@H](COP(O)(=S)OP(=O)(O)C(Cl)(Cl)P(=O)(O)O)[C@@H](O)[C@H]1O` (single isomer, unassigned) [APPCCl2P-α-S, adenosine 5′-[Pα-thio]-β,γ-(dichloromethylene)triphosphate], the viable cells in data set [4] (100 μM) is 100%; in data set [4] (1000 μM), 75%. In addition, the EC50 in data set [5] is > 10 µM.
As to `Nc1ncnc2c1ncn2[C@@H]1O[C@H](COP(O)(=S)OP(=O)(O)C(Cl)(Cl)P(=O)(O)O)[C@@H](O)[C@H]1O` (single isomer, unassigned; isomer a) [APPCCl2P-α-S (isomer A), adenosine 5′-[Pα-thio]-β,γ-(dichloromethylene)triphosphate], the “Hydrolysis by TNAP” value in data set [6] was “fully stable”.
Consider `Nc1ncnc2c1ncn2[C@@H]1O[C@H](COP(=O)(O)CP(=O)(O)OP(O)(O)=S)[C@@H](O)[C@H]1O` [APCPP-γ-S, adenosine 5′-[Pγ-thio]-α,β-methylenetriphosphate], for which the IC90 in data set [1] was determined as 211 ± 7 µM. Further, in data set [4] (1000 μM), the “reduction of cell viability” value is given as 25% and the viable cells worked out at 75%. Moreover, the “not toxic up to (concentration)” value in data set [4] (24 h) is “up to 100 μM”. Further, in data set [5], the “no activity at the P2Y1 receptor up to (concentration)” value is “up to 10 μM” and the EC50 is > 10 µM. For the same molecule, in data set [2] (Rattus norvegicus, PC-12, 1 h), the half-inhibitory concentration (IC50) was 0.16 µM. The “Hydrolysis by TNAP” value in data set [6] stood at 2.5%.
Take “di-adenosine-5′,5″-tetrathiobisphosphonate”: the “stability under air-oxidizing conditions” value in data set [3] (open NMR tube, 3 days) was “highly stable”. In addition, the stability result in data set [3] was “identical to that of adenosine 5′-tetrathiobisphosphonate”.
